Consider 23 compounds from patent US20130012709A1, “NOVEL INHIBITORS OF STEAROYL-CoA-DESATURASE-1 AND THEIR USES” (CENTRE NATIONAL DE LA RECHERCHE SCIENTIFIQUE, priority 2009, published 2013).

Molecules are shown by their SMILES.

In data set [1] the test system is C4-2 cells. The experiment in a line: Proliferation by BrDU incorporation. As to conditions: 25 μM, 48 h of treatment.
Protocol: (§2) LNCaP and C4-2 cells grown on coverslips were incubated for 4 hours with BrdU (100 μM final) at 24 hours and 48 hours following SCD-1 knock-down. Cells were then fixed and permeabilized with cold methanol for 10 min at −20° C. After 3 washes with PBS, DNA was denaturated with 4NHCL for 10 min at RT, and cells were incubated with blocking buffer (PBS-1% BSA). BrDU was then detected with anti-BrDU monoclonal antibody 1:50 (Dako, Carpinteria, Calif.) for 1 hour at 37° C. After 3 washes with PBS, cells were incubated with an FITC-conjugated anti-mouse secondary antibody 1:150 (Jackson Immunoresearch) for 30 min at 37° C., and slides were mounted in mowiol.
Data set [2] deals with C4-2 cells. The experiment in a line: Flow cytometry analysis of cell cycle. The data set is classed as cell-based, human. As to conditions: 25 μM, 48 h; untreated cells 22. The procedure:
(§1) Cells were then rinsed in PBS, pelleted at 400 g for 5 min and maintained on ice for 20 min before resuspension in a […] propidium iodide (Sigma) solution. Cells were kept overnight at 4° C. and the percentages of cells in G1, S and G2-M phases of the cell cycle were measured with a Coulter Epics XL™ flow cytometer (Becton Dickinson) using 488-nm laser excitation. For apoptosis experiment, MEFs were treated with the tested compound at 25 μM for 24 h, then rinced in PBS, pelleted at 400 g for 5 min and stained with annexinV-FITC (Roche Diagnostics, Meylan, France) for 15 min at 4° C. The percentage of annexin positive cells was immediately analysed using 488-nm laser excitation.
On the technique in general: A flow cytometer gives signals particle by particle.

In data set [3] the test system is LNCaP cells. The experiment in a line: Flow cytometry analysis of cell cycle. As to conditions: 25 μM, 48 h; untreated cells 20. The data set is classed as cell-based, human. On the procedure:
as §1

Data set [4] has as its system LNCaP cells. The experiment in a line: Proliferation by BrDU incorporation. As to conditions: 25 μM, 48 h of treatment. The data set is classed as cell-based, human.
Protocol: as §2
Data set [5] concerns C4-2 cells. Description: MTT assay (cell viability). As to conditions: 48 h. (Tetrazolium assays rely on reduction of a dye to a coloured formazan, in cell work by metabolically active cells.)
Protocol: After 48 h, medium was removed and 250 μl of a 5 mg/ml MTT (Sigma, St Louis, Mo., USA) solution in PBS was added to each well. After 4 h incubation at 37° C., the MTT solution was removed, 200 μl of DMSO (Sigma) was added and cells were incubated for 5 min. Two hundred microliters of each samples was distributed in 96-well plates for an optical density reading at 540 nm.

As to `COc1ccc(Br)c(C(=O)N2CCN(S(=O)(=O)c3ccc(Br)cc3)CC2)c1` [Example 17, 1N-[(2-bromo-5-methoxybenzoyl)]-4N-[(4-bromophenyl)sulfonyl]piperazine], the “% Inhibition of proliferation at 25 μM (BrDU) on C4-2” value (from here on “% Inhibition … on C4-2”) in data set [1] was determined as 67.6 ± 8.2%.

Consider `COc1ccc(S(=O)(=O)N2CCN(C(=O)c3cc(OC)ccc3Br)CC2)cc1` [Example 19, 1N-[(2-bromo-5-methoxybenzoyl)]-4N-[(4-methoxyphenyl)sulfonyl]piperazine], for which the “% Inhibition … on C4-2” value in data set [1] is listed as 22.4 ± 7.7%.

For the compound `COc1ccc(Br)c(C(=O)N2CCN(S(=O)(=O)c3ccc(C(F)(F)F)cc3)CC2)c1` [Example 3, 1N-[(2-bromo-5-methoxybenzoyl)]-4N-[(4-trifluoromethylphenyl)sulfonyl]piperazine], in data set [1], the “% Inhibition … on C4-2” value is recorded as 65.8 ± 6.4%. Further, the “% C4-2 cells in phase S at 25 μM” value in data set [2] was found to be 2.8%. Further, in data set [3], the “% LNCaP cells in phase S at 25 μM” value stood at 10%.

Turning to `COc1ccccc1C(=O)N1CCN(S(=O)(=O)c2ccc(F)cc2F)CC1` [Example 32, 1N-[(2-methoxybenzoyl)]-4-N-[(2,4-difluorophenyl)sulfonyl]piperazine], the “% Inhibition … on C4-2” value in data set [1] stood at 0%.

In the case of `COc1ccc(Br)c(C(=O)N2CCN(S(=O)(=O)c3ccco3)CC2)c1` [Example 23, 1N-[(2-bromo-5-methoxybenzoyl)]-4N-[(2-furan)sulfonyl]piperazine], the “% Inhibition … on C4-2” value in data set [1] is 48 ± 14%.

`COc1ccc(Br)c(C(=O)N2CCN(S(=O)(=O)c3ccc(Cl)cc3)CC2)c1` [Example 18, 1N-[(2-bromo-5-methoxybenzoyl)]-4N-[(4-chlorophenyl)sulfonyl]piperazine]: in data set [4], the “% Inhibition of proliferation at 25 μM (BrDU) on LNCaP” value (“% Inhibition … on LNCaP” for short) was found to be 49.7%. Moreover, the “Viable C4-2 cells at 25 μM (% of control)” value in data set [5] is recorded as 59 % of control. Further, the “% Inhibition … on C4-2” value in data set [1] is 38.1 ± 7.1%.

For the compound `COc1ccc(Br)c(C(=O)N2CCN(S(=O)(=O)c3cn(C)cn3)CC2)c1` [Example 25, 1N-[(2-bromo-5-methoxybenzoyl)]-4N-[(1-methyl-1H-imidazole)sulfonyl]piperazine], the “% Inhibition … on C4-2” value in data set [1] worked out at 0%.

As for `COc1ccc(C(=O)N2CCN(S(=O)(=O)c3ccc(F)cc3F)CC2)cc1Br` [Example 26, 1N-[(3-bromo-4-methoxybenzoyl)]-4-N-[(2,4-difluorophenyl)sulfonyl]piperazine], the “% Inhibition … on C4-2” value in data set [1] is recorded as 68.2 ± 18.2%.

Consider `COc1ccc(Br)c(C(=O)N2CCN(S(=O)(=O)c3c(F)cccc3F)CC2)c1` [Example 14, 1N-[(2-bromo-5-methoxybenzoyl)]-4N-[(2,6-difluorophenyl)sulfonyl]piperazine], for which the “% Inhibition … on C4-2” value in data set [1] stood at 0%.

As for `COc1ccc(Br)c(C(=O)N2CCN(S(=O)(=O)c3ccc(-c4ccccc4)cc3)CC2)c1` [Example 9, 1N-[(2-bromo-5-methoxybenzoyl)]-4N-[(4-biphenyl)sulfonyl]piperazine], the “% Inhibition … on LNCaP” value in data set [4] is 48.3%. Further, in data set [5], the “Viable C4-2 cells at 25 μM (% of control)” value is reported as 90 % of control. Further, in data set [1], the “% Inhibition … on C4-2” value was found to be 60.5 ± 5.7%.

For the compound `COc1ccc(Br)c(C(=O)N2CCN(S(=O)(=O)Cc3ccccc3)CC2)c1` [Example 20, 1N-[(2-bromo-5-methoxybenzoyl)]-4N-[(phenylmethane)sulfonyl]piperazine], the “% Inhibition … on LNCaP” value in data set [4] was determined as 16.8%. Also, the “Viable C4-2 cells at 25 μM (% of control)” value in data set [5] was 37 % of control. Further, in data set [1], the “% Inhibition … on C4-2” value amounted to 46.3 ± 11.7%.

In the case of `COc1cccc(C(=O)N2CCN(S(=O)(=O)c3ccc(F)cc3F)CC2)c1` [Example 31, 1N-[(3-methoxybenzoyl)]-4-N-[(2,4-difluorophenyl)sulfonyl]piperazine], the “% Inhibition … on C4-2” value in data set [1] is on record as 25.3 ± 6.1%.

Consider `COc1ccc(Br)c(C(=O)N2CCN(S(=O)(=O)c3ccc(C)cc3)CC2)c1` [Example 10, 1N-[(2-bromo-5-methoxybenzoyl)]-4N-[(4-methylphenyl)sulfonyl]piperazine], for which, in data set [4], the “% Inhibition … on LNCaP” value was found to be 0%. The “Viable C4-2 cells at 25 μM (% of control)” value in data set [5] was 59 % of control. Besides, in data set [1], the “% Inhibition … on C4-2” value is on record as 0%.

`COc1ccc(Br)c(C(=O)N2CCN(S(=O)(=O)c3cccs3)CC2)c1` [Example 21, 1N-[(2-bromo-5-methoxybenzoyl)]-4N-[(2-thiophene)sulfonyl]piperazine]: the “% Inhibition … on C4-2” value in data set [1] was 58.3 ± 19.9%.

Consider `O=C(c1cscn1)N1CCN(S(=O)(=O)c2ccc(F)cc2F)CC1` [Example 37, 1N-[4-thiazolecarbonyl]-4-N-[(2,4-difluorophenyl)sulfonyl]piperazine], for which the “% Inhibition … on C4-2” value in data set [1] came to 37 ± 7.8%.

With `COc1ccc(Br)c(C(=O)N2CCN(S(=O)(=O)c3ccsc3)CC2)c1` [Example 22, 1N-[(2-bromo-5-methoxybenzoyl)]-4N-[(3-thiophene)sulfonyl]piperazine], the “% Inhibition … on C4-2” value in data set [1] is 28 ± 2.6%.

In the case of `COc1c(Br)cccc1C(=O)N1CCN(S(=O)(=O)c2ccc(F)cc2F)CC1` [Example 28, 1N-[(2-methoxy-3-bromobenzoyl)]-4-N-[(2,4-difluorophenyl)sulfonyl]piperazine], in data set [1], the “% Inhibition … on C4-2” value stood at 55.4 ± 14%.

`O=C(c1ccsc1)N1CCN(S(=O)(=O)c2ccc(F)cc2F)CC1` [Example 36, 1N-[3-thiophenecarbonyl]-4-N-[(2,4-difluorophenyl)sulfonyl]piperazine]: the “% Inhibition … on C4-2” value in data set [1] is listed as 40 ± 7.6%.

In the case of `COc1ccc(Br)c(C(=O)N2CCN(S(=O)(=O)c3ccc(C(C)C)cc3)CC2)c1` [Example 16, 1N-[(2-bromo-5-methoxybenzoyl)]-4N-[(4-isopropylphenyl)sulfonyl]piperazine], in data set [1], the “% Inhibition … on C4-2” value is given as 75.4 ± 10.8%.

Regarding `COc1ccc(Br)c(C(=O)N2CCN(S(=O)(=O)c3ccc(C(C)=O)cc3)CC2)c1` [Example 4, 1N-[(2-bromo-5-methoxybenzoyl)]-4N-[(4-acetylphenyl)sulfonyl]piperazine], the “% Inhibition … on C4-2” value in data set [1] turned out to be 36 ± 5.4%. Also, the “% C4-2 cells in phase S at 25 μM” value in data set [2] came to 19.7%. Besides, the “% LNCaP cells in phase S at 25 μM” value in data set [3] was 18%.

`CCCc1ccc(S(=O)(=O)N2CCN(C(=O)c3cc(OC)ccc3Br)CC2)cc1` [Example 5, 1N-[(2-bromo-5-methoxybenzoyl)]-4N-[(4-propylphenyl)sulfonyl]piperazine]: the “% Inhibition … on C4-2” value in data set [1] came to 26.8 ± 20.2%. The “% C4-2 cells in phase S at 25 μM” value in data set [2] is reported as 10.7%. In data set [3], the “% LNCaP cells in phase S at 25 μM” value stood at 3%.

Take `COc1ccc(Br)c(C(=O)N2CCN(S(=O)(=O)c3ccoc3)CC2)c1` [Example 24, 1N-[(2-bromo-5-methoxybenzoyl)]-4N-[(3-furan)sulfonyl]piperazine]: in data set [1], the “% Inhibition … on C4-2” value is on record as 28.4 ± 9.8%.

Regarding `COc1ccc(Br)cc1C(=O)N1CCN(S(=O)(=O)c2ccc(F)cc2F)CC1` [Example 27, 1N-[(2-methoxy-5-bromobenzoyl)]-4-N-[(2,4-difluorophenyl)sulfonyl]piperazine], the “% Inhibition … on C4-2” value in data set [1] was determined as 26.2 ± 6.2%.
